Results taken from patent US12698311B2, “Process for the preparation of an antimicrobial peptide” (INSTITUTE OF BIORESOURCES AND SUSTAINABLE DEVELOPMENT, priority 2020, dated 2026).
No end group written: not given here.

What was measured:
[1] = format: cell-based; settings: broth dilution bioassay
Method: The peptides were recovered by lyophilization and stored at −20° C. until further use. The MIC of the RP-HPLC purified bioactive metabolite was determined to be 0.0365 μg μl^−1 with broth dilution bioassay. The two peaks were detected in the selected wavelengths of λ280 nm, λ205 nm and λ214 nm. However, only the peak 1 was selected for further study as it had shown more potency in antimicrobial susceptibility test.

[2] = Retention of antimicrobial activity after treatment with inorganic solvents and temperature; format: physicochemical; parameters: key to Activity: (+) retention; (−) loss
Excerpt: Effect of Temperature and Inorganic Solvents:
The AMP, Peoriaerin IBSD35 is a very stable biomolecule and works on a wide range of temperature and pH and withstand against inorganic solvents as shown in Table 2 below.

[3] = Retention of antimicrobial activity after treatment with degradative enzymes; format: physicochemical; parameters: key to Activity: (+) retention; (−) loss
Method: Effect of Physiological Enzymes:
The purified AMP, Peoriaerin IBSD35 is treated with proteolytic enzymes, it can withstand against enzymes and its antimicrobial activity was checked by measuring the zone of inhibition as shown in Table 3 below.

[4] = Retention of antimicrobial activity after treatment with detergents; format: physicochemical; parameters: key: (+) retention; (−) loss
Method: The surfactants such as sodium dodecyl sulphate (SDS), Tween 20, Tween 80 and Triton X were incubated with the anti-microbial compound, Peoriaerin IBSD35.

[5] = tested on: Candida albicans ATCC 10231, Escherichia coli ATCC 25922, Klebsiella pneumoniae ATCC 4352, Salmonella typhimurium ATCC 14028, Candida tropicalis ATCC 750 and …; experiment: Spectrum of antimicrobial activity against AMR pathogens; format: cell-based; settings: six ATCC strains listed
Method: Spectrum of antimicrobial activity: The spectrum of activity was determined from the selected test pathogens viz. S. aureus ATCC25923, C. ablicans ATCC 10231, and E. coli ATCC 25922 which represented as a Gram (+), Gram (−) and fungal pathogens (FIG. 2). […] The cell debris were removed by centrifugation at 4000 rpm for 15 min at 4° C. The supernatant was harvested for antimicrobial bioassay and preserved at 4° C. for further purification (Fujita et al., 2007). The well loaded with samples that shown a clear halo zone of inhibition (at least 6-7 mm diameter) were taken as positive against the selected Gram (+ve), Gram (−ve) and fungal pathogens. The bacterial endophytic strain IBSD35 isolated from M. pachycarpa has shown a broad-spectrum of AA against the representative test pathogens in the preliminary Spot-on-lawn bioassay and the Cut-well agar diffusion bioassay (FIG. 2). It inferred antifungal, antibacterial and antimicrobial property of the endophyte strain IBSD35.

Sequence: GFEFAGAGNGVGRVNSATDATYGLGVFLDAGDNNLAKNAESTGYNDANAVTVTK [Peoriaerin IBSD35]
- MIC [1]: 36.5 µg/mL
- stable at a pH in the range [2]: 4-9
- Activity ([2]; after Acetone (1:1)): +
- Activity ([2]; after Butanol (1:1)): +
- Activity ([2]; after Ethyl acetate (1:1)): +
- Activity ([2]; after Isopropanol (1:1)): +
- Activity ([2]; after Methanol (1:1)): +
- Activity ([2]; after Petroleum ether (1:1)): +
- Activity ([2]; after Temperature 20 ° C.): +
- Activity ([2]; after Temperature 40 ° C.): +
- Activity ([2]; after Temperature 60 ° C.): +
- Activity ([2]; after Temperature 80 ° C.): +
- Activity ([2]; after Temperature 100 ° C.): +
- Activity ([2]; after Temperature 121 ° C.): +
- Activity ([3]; after Catalase): +
- Activity ([3]; after Cellulase): +
- Activity ([3]; after Pectinase): +
- Activity ([3]; after Pepsin): +
- Activity ([3]; after Proteinase K (1 mg/ml)): +
- Zone of inhibition diameter ([3]; after Proteinase K (1 mg/ml)): 11 mm
- Activity ([4]; after SDS (1:1)): +
- Activity ([4]; after Triton X (1:1)): +
- Activity ([4]; after Tween 20 (1:1)): +
- Activity ([4]; after Tween 80 (1:1)): +
- antimicrobial activity against gram positive, gram negative and fungal anti-microbial resistant pathogens [5]: strong and broad spectrum of antimicrobial activity
